# Legend:
# [1] = test system: HPP-CFC colonies; assay: Expansion of HPP-CFU, blood cell colony forming assay (Assay Example 3); type: cell-based, human; conditions: cells cultured with 3 μg/mL compound, 500 cells/dish, 12 days; None = 6
# Procedure: The effects of Compounds No. 60 and No. 61 of the present invention on hematopoietic progenitor cells were measured by blood cell colony forming assay. The liquid cell cultures obtained in the presence of Compounds No. 60 or No. 61 at a final concentration of 3 μg/mL in the same manner as in Assay Example 1 were poured into 3.5-cm Petri dishes with MethoCult GF H4435 culture medium (StemCell Technologies) at 500 cells/dish and incubated in a CO2 incubator (5% CO2, 37° C.) for 12 days. The number of HPP-CFC colonies in each plate was counted under a microscope routinely. The assay was carried out at least in triplicate, and the numbers of HPP-CFC colonies were averaged.
# [2] = test system: CD34^+CD38^− cells; assay: Expansion of CD34+CD38- cells using human cord blood-derived CD34+ cells (Assay Example 1); type: cell-based; conditions: for Comparison with TPO: 3 μg/mL compound vs TPO 10 ng/mL, CD34^+CD38^− cells; for Expansion efficiency (CD34^+CD38^− cells): 3 μg/mL compound, 100 ng/mL SCF, 7 days, based on the number of CD34^+CD38^− cells in the absence of compound
# Procedure: (§1) Human cord blood-derived CD34^+ cells were purchased from Lonza and plated on a 24-well plate (Corning) (10000 cells/1 mL/well). As the culture medium, StemSpan SFEM (StemCell Technologies) containing 100 ng/mL SCF (Wako Pure Chemical Industries) was used, and one of Compounds No. 1 to 72 dissolved in dimethyl sulfoxide was added in an amount of 0.1% (v/v) to a final concentration of 1 or 3 μg/mL. As a positive control, TPO (PeproTech) was used at a final concentration of 10 ng/mL.
# (§2) After the cells were incubated in liquid culture at 37° C. for 7 days in a CO2 incubator (5% CO2), the number of viable cells was counted by trypan blue assay. The number of CD34^+CD38^− cells was calculated as follows. After the incubation, the cells in the liquid culture was stained with a CD34 antibody (APC, Becton, Dickinson and Company) and a CD38 antibody (PE, Becton, Dickinson and Company), then washed with PBS(−) containing 2% (v/v) FBS and stained with propidium iodide (Sigma-Aldrich Japan) added to a final concentration of 5 μg/mL. The stained cells were analyzed with a BD FACSCANTO™ II flow cytometer (Becton, Dickinson and Company) to determined the proportions of CD34^+ cells and CD34^+CD38^− cells, which was multiplied by the number of viable cells to calculate the numbers of CD34^+ cells and CD34^+CD38^− cells.
# (§3) The expansion efficiencies in the presence of 1 or 3 μg/mL of compounds based on the number of CD34^+ cells in the absence of them are shown in Tables 3-1 and 3-2 on a scale of A for expansion efficiencies of 6 or greater, B for expansion efficiencies of at least 4 and less than 6, and C for expansion efficiencies of at least 2 and less than 4. The expansion efficiencies in the presence of 1 or 3 μg/mL of compounds based on the number of CD34^+CD38^− cells in the absence of them are shown in Tables 4-1 and 4-2 on a scale of A for expansion efficiencies of 10 or greater, B for expansion efficiencies of at least 5 and less than 10, and C for expansion efficiencies of at least 3 and less than 5. Further, in Table 3, the compounds with an expansion efficiency twice or more greater than that of TPO are marked with O.
# [3] = test system: CD34^+ cells; assay: Expansion of CD34+ cells using human cord blood-derived CD34+ cells (Assay Example 1); type: cell-based; conditions: 3 μg/mL compound; 100 ng/mL SCF, 7 days; based on the number of CD34^+ cells in the absence of compound
# Procedure: as §1, §2, §3
# [4] = test system: SRC; assay: Transplantation of cell culture into immunodeficient (NOD/SCID) mice, SRC assay (Assay Example 4); type: in vivo; conditions: CD34^+ cells cultured 1 week with 3 μg/mL Compound No. 60, SCF and Flt-3, 8 weeks after transplantation, vs uncultured CD34^+ cells, FIG. 2
# Procedure: Human cord blood-derived CD34^+ cells were cultured for 1 week in StemSpan SFEM (StemCell Technologies) containing SCF (Peprotech) at a final concentration of 100 ng/mL and Flt-3 (Wako Pure Chemical Industries) at a final concentration of 100 ng/mL in the presence of TPO (Peprotech) at a final concentration of 20 ng/mL or Compound No. 60 at a final concentration of 3 μg/mL in the same manner as in Assay Example 1. The cell culture were transplanted into at least five 7- to 8-week-old NOD/SCID mice by tail vein injection at 4×10^4 cells/mouse in terms of the initial number of CD34^+ cells after a sublethal dose of irradiation (2.5 Gy). Eight weeks after the transplantation, the mice were killed, and the bone marrow cells were collected from both thighbones. Subsequently, the bone marrow cells were stained with a human CD45 antibody (APC, Becton, Dickinson and Company), then washed with PBS(−) containing 2% (v/v) FBS and stained with propidium iodide (Sigma-Aldrich Japan) added to a final concentration of 5 μg/mL. The stained cells were analyzed with a flow cytometry to determined the proportion of human CD45^+ cells in the bone marrow cells. […]
compound,measurement,setting,value
CC(=NNC(=O)c1ccc(C(=O)NCc2ccc(C(=O)NCCOCCO)cc2)s1)c1csc(-c2ccc(C(C)(C)C)cc2)c1O [Compound No. 60],Number of HPP-CFC colonies,[1],25
same,Comparison with TPO,[2],∘
same,Expansion efficiency (CD34^+CD38^− cells),[2],A (A for expansion efficiencies of 10 or greater)
same,Expansion efficiency (CD34^+ cells),[3],B (B for expansion efficiencies of at least 4 and less than 6)
same,SRC expanding effect (proportion of human CD45^+ cells in bone marrow),[4],excellent SRC expanding effect
CC(=NNC(=O)c1ccc(C(=O)NCc2ccc(C(=O)NCCOCCO)cc2)s1)c1csc(-c2ccc(Br)cc2)c1O [compound 61],Number of HPP-CFC colonies,[1],14
same,Comparison with TPO,[2],∘
same,Expansion efficiency (CD34^+CD38^− cells),[2],A (A for expansion efficiencies of 10 or greater)
same,Expansion efficiency (CD34^+ cells),[3],A (A for expansion efficiencies of 6 or greater)
CC(=NNC(=O)c1ccc(C(=O)NCc2ccc(C(=O)NCCN3CCOCC3)cc2)s1)c1csc(-c2ccc(Cl)c(Cl)c2)c1O [compound 19],Expansion efficiency (CD34^+CD38^− cells),[2],A (A for expansion efficiencies of 10 or greater)
same,Expansion efficiency (CD34^+ cells),[3],C (C for expansion efficiencies of at least 2 and less than 4)
COc1ccc(-c2scc(C(C)=NNC(=O)c3ccc(C(=O)NCc4ccc(CC(N)=O)cc4)s3)c2O)cc1 [compound 72],Expansion efficiency (CD34^+CD38^− cells),[2],B (B for expansion efficiencies of at least 5 and less than 10)
same,Expansion efficiency (CD34^+ cells),[3],B (B for expansion efficiencies of at least 4 and less than 6)
